Measured values reported in patent US20060183696A1, “Use of immune cell specific conjugates for treatment of inflammatory diseases of gastrointestinal tract” (Pliva-Istrazivacki Institut d.o.o., priority 2004, published 2006).
Like-named read-outs stand apart in the source and are kept apart here.

Tests used:
TNBS induced colitis = assay: TNBS-induced inflammatory bowel disease (colitis) in rats; assay type: in vivo, rat
Protocol: Colitis is induced in male Wistar rats by intracolonic administration of 10-50 mg of TNBS in 0.25 ml of 50% ethanol. Two days prior to administration of TNBS animals are treated with various doses of sterolide (initially ranging from 0.5 to 10 mg/kg of the compound in 0.125% carboxymethyl cellulose in phosphate buffered saline and 1% DMSO) or vehicle control (0.125% carboxymethyl cellulose in phosphate buffered saline and 1% DMSO) or standard steroid such as for example budesonide (1 mg/kg) for 14 days after the TNBS is applied. Rats were sacrificed, blood samples werewere taken (at day 7 and 15 after application of TNBS) to obtain serum samples followed by macroscopic observation and histological evaluation to determine the degree of colonic inflammation. Macroscopic and histological evaluation of tissue damage was done blindly by pathologist. The criteria for assessing macroscopic damage and the numerical rating score are as follows: 0, no damage; 1, localized hyperemia and/or edema; 2, linear ulcer<half of the width of the colon; 3, linear ulcer>half of the width of the colon; 4, small circular ulcer (<1 cm); 5, circular ulcer between 1 and 2 cm; 6, circular ulcer>2 cm. Scores from individual animals were added together and divided by number of animals to get average […] damage. For histological evaluation of colonic injury, each colon is blindly scored according to the following criteria: A) Ulceration: 0, no ulcer, epithelization; 1, small ulcer<3 mm; 2, large ulcer>3 mm; B) Inflammation: 0, no inflammation; 1, mild; 2, moderate; 3, severe; C) Depth of lesion: 0, none; 1, submucosa; 2, muscularis propria; 3, serosa; D) Necrosis: 0, none; 1, mild; 2, severe; E) Granulomas: No, no granulomas; Yes, granulomas present. Maximum score, defined as a sum of all individual scores in this scoring system is 10+granulomas. In some experiments Lekotriene B4 (LTB4) and serum α1 acidic glycoprotein were also measured as an additional indicator of inflammatory activity. Likewise, in selected experiments full thickness specimens from inflamed tissue adjacent to the ulcerated area are excised for measurement of myeloperoxidase (MPO) activity.
Improvement in this experiment is defined by the lower average macroscopic damage and lower histological score, as well as lowering of LTBB4, serum α1 acidic glycoprotein and MPO activity in sterolide treated then in the group of […] (animals receiving vehicle alone).
FIG. 1A describes the macroscopic damage score of the colon in the rat model of TNBS induced colitis (Mann-Whitney Test). The macroscopic damage score of the colon is defined as 0—no damage; 1—localized hyperemia and/or edema; 2—linear ulcer<half of the width of the colon; 3—linear>half the width of the colon or small ulcer (<1 cm) 4—circular ulcer<1 cm; 5—circular between 1 and 2 cm; and 6—circular ulcer>2 cm. The compounds 1′, 2′ and 3′ as shown in the table below were compared against budesonide [a known drug useful for the treatment of Crohn's disease in humans] as a treatment control and just a vehicle as a no treatment control. The no treatment control gave a score of 4 while the treatment control, budesonide, at a dosage of 1 mg/kg gave a score of 2.
FIG. 1B describes effect of conjugates on histological damage score in TNBS induced colitis in rats (Mann-Whitney Test). The histological damage score is defined according to the following criteria: A) Ulceration: 0, no ulcer, epithelization; 1, small ulcer<3 mm; 2, large ulcer>3 mm; B) Inflammation: 0, no inflammation; 1, mild; 2, moderate; 3, severe; C) Depth of lesion: 0, none; 1, submucosa; 2, muscularis propria; 3, serosa; D) Necrosis: 0, none; 1, mild; 2, severe; E) Granulomas: No, no granulomas; Yes, granulomas present. Maximum score, defined as a sum of all individual scores in this scoring system is 10+granulomas. […]

in vivo [1] = settings: male, BALB/CJ, mouse
Protocol: (§1) For I.N. and P.O. administration the substance was dissolved in DMSO. 0.5% methyl cellulose was added up to 100% of the total volume. The solution was applied in a volume of 10 ml/kg b.w. (P.O.) and 10 ml/kg b.w. (I.N.). For I.V. administration the substance was dissolved in DMF. PBS was added up to 100% of the total volume. The solution was applied in a volume of 5 ml/kg b.w. (I.V.)
(§2) The experiment was carried out on approximately eight week old male BALB/CJ mice (IFFA CREDO, Lyon, France), weighing ˜25 g. Animals were weighed, marked and grouped a day before the beginning of the study. After weighing each mouse was given an earmark and placed into a cage (5 mice per cage). […]
(§3) The concentration of the administered compound in biological matrices are calculated by the peak area ratios of compound 1 to an internal standard of roxithromycin using calibration curves and quality control samples.
(§4) Non-compartmental analysis was used for pharmacokinetic analysis in plasma and tissue. The pharmacokinetic parameters were calculated based on average values at each time point using WinNonlin Professional Software, Version 4.1 (Pharsight).
(§5) The pharmacokinetic parameters were calculated as disclosed herein to obtain the bioavailability wherein F=(AUC p.o.(0−∞)/AUC i.v.(0−∞))/(Di.v./Dp.o.).

[2] = Oral bioavailability in rats (p.o. vs i.v., HPLC/MS-MS); settings: rat, in vivo
Protocol: (§6) Male Sprague-Dawley rats weighing approximately 200 g were used. After weighing, each rat was given an earmark and placed into a cage. The day before the beginning of the study, animals were randomly distributed into 5 groups with 5 rats/group and placed into solid bottom cages, on wood dust-free bedding (VRF-1 Rodent's diet, Altromin Gmbh). During the experiment, the rats were maintained on a 12-h light-dark cycle. The rats were weighed and fasted for 12 hours prior to p.o. administration.
(§7) Compound 5 was administered p.o. in 0.125% carboxymethyl cellulose suspension. The dissolved substance was administered oral at a dose of 30 mg/kg body weight (b.w.), using 2.5 mL syringe (BD) and metal gavage. The administered volume was 10 mL/kg b.w.
(§8) Plasma and blood samples were obtained at the following time points after administration: 15, 30, 60, 120, 240, 360 and 480 minutes.
(§9) Blood samples were collected by puncturing the lateral tail vein. Prior to each blood sampling, animals were maintained in warming cabinets at 37° C. for 15 minutes. At each sampling time-point 50 μL of blood were collected and added to an Eppendorf test tube (1.5 mL) containing 50 μL demi water. Blood was collected according the time points stated in the protocol. Specimens were stored at −20° C. until analysis.
(§10) The concentrations of a compound 5 in the biological matrices were determined by a high performance liquid chromatography method using an acetonitrile and water (acidified by 0.1% formic acid) gradient as the chromatographic medium with tandem mass spectrometry detection (HPLC/MS-MS) (Guidance for Industry, Bioanalytical Method Validation, U.S. Department of Health and Human Services, Food and Drug Administration, May 2001).
(§11) Biological samples were prepared by deproteinization with acetonitrile, containing an internal standard. After centrifugation and evaporation of the supernatant fraction, samples were reconstituted in acetonitrile:water with addition of 0.1% formic acid.
(§12) HPLC separation was performed on a reverse phase C18 analytical column (Phenomenex C18(2)m 50×2 mm (3 μm) No 182700-5) with a guard column, maintained at ambient temperature, using a gradient of water:acetonitrile [0 min-1 min 10% acetonitrile, 2.5-3.5 minutes 80% acetonitrile, 3.5-5.6 min 10% acetonitrile with addition of 0.1% formic acid at flow rate 0.3 ml/min
(§13) MS-MS detection was performed in multi-resolution mode (MRM).
(§14) The concentration of the administered compound in biological matrices are calculated by the peak area ratios of compound 5 to an internal standard of roxithromycin using calibration curves and quality control samples.
(§15) The pharmacokinetic parameters were calculated using the PK solutions 2.0 software (Summit Research Services, Pharmacokinetics and Metabolism Software).
(§16) The pharmacokinetic parameters were calculated as disclosed herein to obtain the bioavailability wherein F=(AUC p.o.(0−∞)/AUC i.v. (0−∞))/(Di.v./Dp.o.).

in vivo [3] = settings: male, rat, po
Protocol: as §6, §7, §8, §9, §10, §11, §12, §13, §14, §15, §16

[4] = mouse, in vivo
Protocol: as §1, §2, §3, §4, §5

[5] = AUC of compounds tested in mice or rats; design: concentration or dose not given beside the values; settings: in vivo, po
Protocol: The area under the curve (AUC) is calculated as: [formula] where n is the number of data points
AUC∞=AUC(0−t)+Cn/λz, where Cn is the last concentration and λz is the elimination rate constant (estimated from the later portion of the plasma/blood concentration vs. time profiles).

[6] = rat, in vivo; for Amounts detected in plasma and blood: po
Protocol: as §6, §7, §8, §9, §10, §11, §12, §13, §14, §15, §16

CC[C@H]1OC(=O)[C@H](C)[C@@H](O[C@H]2C[C@@](C)(OC)[C@@H](O)[C@H](C)O2)[C@H](C)[C@@H](O[C@@H]2O[C@H](C)C[C@H](N(C)C)[C@H]2O)[C@](C)(O)C[C@@H](C)CN(CCCNC(=O)[C@@]2(O)[C@H](C)CC3C4CCC5=CC(=O)C=C[C@]5(C)[C@@]4(F)[C@@H](O)C[C@@]32C)[C@H](C)[C@@H](O)[C@]1(C)O (stereo partly shown) [2′]
efficacy on macroscopic damage score compared with budesonide (1 mg/kg) (TNBS induced colitis; FIG. 1A, 2 mg/kg): comparable or superior efficacy to that of the standard steroid budesonide
efficacy on histological damage score compared with budesonide (1 mg/kg) (TNBS induced colitis; FIG. 1B, 2 mg/kg): comparable or superior efficacy to that of the standard steroid budesonide
bioavailability (in vivo [1]): < 1%

CC[C@H]1OC(=O)[C@H](C)[C@@H](O[C@H]2C[C@@](C)(OC)[C@@H](O)[C@H](C)O2)[C@H](C)[C@@H](O[C@@H]2O[C@H](C)C[C@H](N(C)C)[C@H]2O)[C@](C)(O)C[C@@H](C)CN(CCCNC(=O)Cc2c(C)n(C(=O)c3ccc(Cl)cc3)c3ccc(OC)cc23)[C@H](C)[C@@H](O)[C@]1(C)O [3′]
efficacy on macroscopic damage score compared with budesonide (1 mg/kg) (TNBS induced colitis; FIG. 1A, 10 mg/kg): comparable or superior efficacy to that of the standard steroid budesonide
efficacy on histological damage score compared with budesonide (1 mg/kg) (TNBS induced colitis; FIG. 1B, 10 mg/kg): comparable or superior efficacy to that of the standard steroid budesonide
bioavailability ([2]; male): 3.7%
AUC [2]: 2580 ng·h/mL
bioavailability [2]: < 10%

CC[C@H]1OC(=O)[C@H](C)[C@@H](O[C@H]2C[C@@](C)(OC)[C@@H](O)[C@H](C)O2)[C@H](C)[C@@H](O[C@@H]2O[C@H](C)C[C@H](N(C)C)[C@H]2O)[C@](C)(O)C[C@@H](C)CN(CCCNC(=O)c2cccnc2Nc2cccc(C(F)(F)F)c2C)[C@H](C)[C@@H](O)[C@]1(C)O [4′]
bioavailability ([2]; male): 6.9%
AUC [2]: 2180 ng·h/mL
bioavailability [2]: < 10%

CC[C@H]1OC(=O)[C@H](C)[C@@H](O)[C@H](C)[C@@H](O[C@@H]2O[C@H](C)C[C@H](N(C)C)[C@H]2O)[C@](C)(O)C[C@@H](C)CN(CCCNC(=O)Cc2c(C)n(C(=O)c3ccc(Cl)cc3)c3ccc(OC)cc23)[C@H](C)[C@@H](O)[C@]1(C)O [9′]
bioavailability ([2]; male): 2.5%
AUC [2]: 1130 ng·h/mL
bioavailability [2]: < 10%

CC[C@H]1OC(=O)[C@H](C)[C@@H](OC2C[C@@](C)(OC)[C@@H](O)[C@H](C)O2)[C@H](C)C(O[C@@H]2O[C@H](C)C[C@H](N(C)C)[C@H]2O)[C@](C)(O)C[C@@H](C)CN(CCCNCCC(=O)O[C@]2(C(=O)OC)[C@H](C)CC3C4C[C@H](F)C5=CC(=O)C=C[C@]5(C)[C@@]4(F)[C@@H](O)C[C@@]32C)[C@H](C)[C@@H](O)[C@]1(C)O (stereo partly shown) [10′]
bioavailability (in vivo [3]): < 1%

CC[C@H]1OC(=O)[C@H](C)[C@@H](O[C@H]2C[C@@](C)(OC)[C@@H](O)[C@H](C)O2)[C@H](C)C(O[C@@H]2O[C@H](C)C[C@H](N(C)C)[C@H]2O)[C@](C)(O)C[C@@H](C)/C(=N\OCCCCCCNC(=O)CNS(=O)(=O)c2ccc(-n3nc(C(F)(F)F)cc3-c3ccc(C)cc3)cc2)[C@H](C)[C@@H](O)[C@]1(C)O (stereo partly shown) [11′]
bioavailability ([2]; male): < 1%

CCCC1O[C@@H]2C[C@H]3[C@@H]4CCC5=CC(=O)C=C[C@]5(C)[C@H]4[C@@H](O)C[C@]3(C)[C@]2(C(=O)CO)O1 (stereo partly shown) [Budesonide, budesonide, reference compound]
macroscopic damage score of the colon (TNBS induced colitis; FIG. 1A, 1 mg/kg, score 0-6, no treatment control 4): 2
histological damage score (TNBS induced colitis; FIG. 1B, 1 mg/kg, maximum score 10, no treatment control 7,6): 4,5

CC[C@H]1OC(=O)[C@H](C)[C@@H](O)[C@H](C)[C@@H](O)[C@](C)(O)C[C@@H](C)CN(CCCNCCC(=O)O[C@]2(C(=O)OC)[C@H](C)CC3C4C[C@H](F)C5=CC(=O)C=C[C@]5(C)[C@@]4(F)[C@@H](O)C[C@@]32C)[C@H](C)[C@@H](O)[C@]1(C)O (stereo partly shown) [Compound 1]
oral bioavailability [4]: not measurable
AUC [5]: 70 ng·h/mL

CC[C@H]1OC(=O)[C@H](C)[C@@H](O)[C@H](C)[C@@H](O)[C@](C)(O)C[C@@H](C)CN(CCCNC(=O)[C@H]2[C@H](C)CC3C4CCC5=CC(=O)C=C[C@]5(C)[C@@]4(F)[C@@H](O)C[C@@]32C)[C@H](C)[C@@H](O)[C@]1(C)O (stereo partly shown) [Compound 1′]
efficacy on macroscopic damage score compared with budesonide (1 mg/kg) (TNBS induced colitis; FIG. 1A, 2 mg/kg): comparable or superior efficacy to that of the standard steroid budesonide
efficacy on histological damage score compared with budesonide (1 mg/kg) (TNBS induced colitis; FIG. 1B, 2 mg/kg): comparable or superior efficacy to that of the standard steroid budesonide
efficacy on macroscopic damage score compared with budesonide (1 mg/kg) (TNBS induced colitis; FIG. 2, dosages ranging from 4 mg/kg to 0.5 mg/kg): comparable or superior efficacy to that of the standard steroid budesonide

CC[C@H]1OC(=O)C(C)[C@@H](O[C@H]2C[C@@](C)(OC)[C@@H](O)[C@H](C)O2)[C@H](C)[C@@H](O[C@@H]2O[C@H](C)C[C@H](N(C)C)[C@H]2O)[C@](C)(O)C[C@@H](C)/C(=N\OCCCCCNC(=O)[C@@]2(O)[C@H](C)CC3C4CCC5=CC(=O)C=C[C@]5(C)[C@@]4(F)[C@@H](O)C[C@]32C)[C@H](C)[C@@H](O)[C@]1(C)O (stereo partly shown) [Compound 5]
oral bioavailability ([6]; 30 mg/kg): not measurable
Amounts detected in plasma and blood ([6]; 30 mg/kg): below the limits of detection

CC[C@H]1OC(=O)[C@H](C)C(OC2C[C@@](C)(OC)[C@@H](O)[C@H](C)O2)[C@H](C)[C@@H](O[C@@H]2O[C@H](C)C[C@H](N(C)CCCNC(=O)[C@]3(O)[C@H](C)CC4C5CCC6=CC(=O)C=C[C@]6(C)[C@@]5(F)[C@@H](O)C[C@@]43C)[C@H]2O)[C@](C)(O)C[C@H](C)CN(C)[C@H](C)[C@@H](O)[C@]1(C)O (stereo partly shown) [Compound 6]
AUC [5]: 400 ng·h/mL

CC[C@H]1OC(=O)[C@H](C)[C@@H](O)[C@H](C)[C@@H](O)[C@](C)(O)C[C@@H](C)CN(CCCN(CC)CCC(=O)O[C@]2(C(=O)OC)[C@H](C)CC3C4C[C@H](F)C5=CC(=O)C=C[C@]5(C)[C@@]4(F)[C@@H](O)C[C@@]32C)[C@H](C)[C@@H](O)[C@]1(C)O (stereo partly shown) [Compound 8]
AUC [5]: 60 ng·h/mL

CCCCN(CCCN1C[C@H](C)C[C@@](C)(O)[C@H](O)[C@@H](C)[C@H](O)[C@@H](C)C(=O)O[C@H](CC)[C@@](C)(O)[C@H](O)[C@H]1C)CCC(=O)O[C@]1(C(=O)OC)[C@H](C)CC2C3C[C@H](F)C4=CC(=O)C=C[C@]4(C)[C@@]3(F)[C@@H](O)C[C@@]21C (stereo partly shown) [Compound 9]
AUC [5]: 390 ng·h/mL

CCCN(CCCN1C[C@H](C)C[C@@](C)(O)[C@H](O)[C@@H](C)[C@H](O)[C@@H](C)C(=O)O[C@H](CC)[C@@](C)(O)[C@H](O)[C@H]1C)CCC(=O)O[C@]1(C(=O)OC)[C@H](C)CC2C3C[C@H](F)C4=CC(=O)C=C[C@]4(C)[C@@]3(F)[C@@H](O)C[C@@]21C (stereo partly shown) [Compound 10]
AUC [5]: 60 ng·h/mL

CC[C@H]1OC(=O)[C@H](C)[C@@H](O)[C@H](C)[C@@H](O)[C@](C)(O)C[C@@H](C)CN(CCCNC(=O)[C@H]2[C@H](C)CC3C4CCC5=CC(=O)C=C[C@]5(C)[C@@]4(F)[C@@H](O)C[C@@]32C)[C@H](C)[C@@H](O)[C@]1(C)O (stereo partly shown) [drawing 72]
oral bioavailability [6]: not measurable
Amounts detected in plasma and blood [6]: below the limits of detection
